# According to a melting point compilation (Tetko et al.; mined from patent text by program, amines drawn as free bases though some values may be those of a salt):
row,Structure (SMILES),melting point
1,O=c1[nH]c2ccc(Cl)cc2c2c1[nH]c1ccccc12,325 to 327 °C
2,FC(F)(F)CNc1ccc2c(c1)N1CCN=C1S2,212 °C
3,CCCN(CCC)C(=O)C(=NNc1ccccc1)C(C)=O,79 to 80 °C
4,O=C(O)c1ccc(C2=NCCO2)nc1,286 to 287 °C
5,Cc1nsc(OCC(Cl)(Cl)Cl)c1S(=O)(=O)Cl,71 to 74 °C
6,NC(=O)N=C1SCCN1Cc1ccccc1,143 to 145 °C
7,CCCCC[C@@H](CNC(=O)Nc1c(OC)ccc2c1CCCC2)c1cccc2c1OCO2,137 to 138 °C
8,O=C(O)COc1ccccc1OCCC(c1ccccc1)(c1ccccc1)c1ccccc1,137 to 139 °C
9,CC(=O)CC(=O)Nc1ccc(Br)cc1C,109 °C
10,CN1CC(c2ccc(S(C)(=O)=O)cc2)=C(c2ccc(Cl)cc2)C1=O,129 to 131 °C
11,C=C(C)Cc1c(C)c(NC=O)c(C)c(CC(=C)C)c1O,169 to 170 °C
12,CN(C)S(=O)(=O)NCC(C)(C)N,77 to 78 °C
13,CC(C)Cc1nc(-c2ccccc2)cnc1O,205 to 207 °C
14,CC(C)CNc1ccc(Cl)cc1C(O)c1ccccc1OCc1ccccc1 (configuration not stated),79 to 80 °C
15,CNC1(c2ccccc2)CCN(C(c2ccccc2)(c2ccccc2)c2ccccc2)CC1,125 °C
16,CCn1cc(C(=O)NCc2ccc(Cl)cc2)c(=O)c2sccc21,189 to 192 °C
17,N#Cc1c(Cl)nc2ccc(S(=O)(=O)Cl)cc2c1Cl,168 to 171 °C
18,C[C@]12CCC(=O)N[C@@H]1CCc1cc(Sc3cccc(F)c3)ccc12,154 to 156 °C
19,CC(C)c1ccc(C2(OC(=O)N(C)C)C(=O)c3ccccc3C2=O)c(O)c1,114 to 118 °C
20,CCCC(=O)c1cnc2c(C(N)=O)cccc2c1Nc1ccccc1C,185 to 187 °C
21,CCN(CC)CCCNC(=O)Cn1cnc(-c2ccccc2)c1-c1ccccc1,81 to 83 °C
22,CCC1CC2C3CCC4=CC(=O)CCC4=C3C=CC2(CC)C1O (configuration not stated),184 to 187 °C
23,COc1cc2cnnc(N3CCC4(CC3)OCCCO4)c2cc1OC,194 to 196 °C
24,CN1CCN2CCNC2(c2ccccc2)c2cc(Cl)ccc21 (configuration not stated),100 to 102 °C

row,Structure (SMILES),melting point
1,Nc1ccc2c(ccn2-c2ccncc2)c1,149 to 154 °C
2,CCOC(=O)CCc1ccc2cc(O)ccc2c1,90 to 91 °C
3,CC1CC(=O)NN=C1c1ccc2c(c1)N(S(C)(=O)=O)CCO2 (configuration not stated),207 to 212 °C
4,CCCCc1nc2c(N)nc3ccc(OCc4ccccc4)cc3c2n1CCCCNC(=O)c1ccccc1,173 to 174 °C
5,CN(C)C(=O)N1CCC(C(=O)N(CCCN2CCC(Cc3ccccc3)CC2)c2ccc(Cl)c(Cl)c2)CC1,109 to 112 °C
6,CCCc1nc2cc(C(=O)c3ccccc3)ccc2n1Cc1ccc(C(=O)OCC)cc1,126 to 128 °C
7,CC(Cc1c[nH]c2ccccc12)(NC(=O)OC1C2CC3CC(C2)CC1C3)C(=O)NCCc1cnccn1 (configuration not stated),97 to 101 °C
8,COC(=O)C1=C(O)c2ccc(F)cc2S(=O)(=O)N1C,191 °C
9,Cc1cc(SCc2ccc(-c3ccc(C(F)(F)F)cn3)cc2)c2c(c1OCC(=O)O)CCC2,186 °C
10,O=C(O)COc1ccc(C(=O)c2ccc(F)cc2)c2ccccc12,105 to 108 °C
11,CCOc1cccc(-c2nc(=O)c3ccccc3s2)n1,180 °C
12,O=[N+]([O-])c1ccccc1OCc1ccccc1,< 50 °C
13,Nc1c(Br)cc(Cc2cc(Br)c(N)c(Br)c2)cc1Br,> 250 °C
14,COc1ccccc1NC(=O)NC1N=C(c2ccccc2)c2ccccc2N(C)C1=O (configuration not stated),258 to 260 °C
15,O=C1NC(=Cc2cccc(Cl)c2Cl)C(=O)C1=NO,180 °C
16,CC(C)(C)OC(=O)ON=C(c1ccccc1)c1ccccc1,126 to 133 °C
17,Oc1cccc2c1C[C@@H](O)[C@H](O)C2 (relative stereo),183 to 184 °C
18,CC(C)(C)C(=O)c1c[nH]c2ncc(-c3ccc(N4CCN(S(C)(=O)=O)CC4)cc3)nc12,288 to 290 °C
19,O=c1[nH]c2cc(Br)cc3c2n(c1=O)CC3,> 300 °C
20,COC(=O)CCC#Cc1cccc(Br)n1,59 to 61 °C
21,O=C(NC(Cc1ccc(OCc2ccccc2)cc1)c1noc(=O)[nH]1)c1cn2cc(-c3ccc(Cl)cc3)ccc2n1 (configuration not stated),167 °C
22,Cc1nc(-n2cnn(CCNCc3ccc(F)cc3)c2=O)sc1C(=O)NCc1cccnc1,106 to 107 °C
23,COC(=O)Nc1cn2ccc(Sc3ccccc3)cc2n1,221 to 223 °C
24,CC(=O)N[C@H](CC(N)=O)C(=O)Nc1ccc(-c2ccc(C(=O)O)c(=O)[nH]2)cc1,265 to 266 °C

row,Structure (SMILES),melting point
1,CNC1=C(C#N)C(c2ccc(Cl)c([N+](=O)[O-])c2)c2ccc3ccccc3c2O1 (configuration not stated),278 to 279 °C
2,CCOP(=S)(OCC)ON=C1C=CC(=C(C#N)c2ccccc2C)S1,86 to 87 °C
3,CCOC(=O)c1c[nH]c2c(=O)ccc(NC(=O)CC)cc2c1=O,> 250 °C
4,Nc1nc(N)c2cc(Cc3ccc4ccccc4c3)ccc2n1,256 to 257 °C
5,O=C(N[C@@H](Cc1ccccc1)C[C@H](O)[C@H](Cc1ccccc1)NC(=O)OCc1cscn1)OCc1cscn1,64 to 66 °C
6,COC(=O)c1ccc2cccc3c2c1-c1ccccc1-3,70 to 71 °C
7,O=C(Nc1ccccc1)C1=C(O)c2ccc3ccccc3c2S(=O)(=O)N1,260 to 262 °C
8,O=C1Cc2c(Cl)cccc2Sc2ccc(C(F)(F)F)cc21,105 to 108 °C
9,COc1ccc(CN([C@@H](CO)c2ccccc2)S(=O)(=O)c2ccc(Cl)cc2)cc1C(=O)O,79 to 80 °C
10,Cc1nccn1Cc1ccc(N)cc1C(F)(F)F,146 to 147 °C
11,CCC1CCC(=O)C=C1c1ccc(OC(CC)C(=O)O)c(Cl)c1Cl (configuration not stated),160 to 162 °C
12,O=C1CCc2c1ccc(F)c2F,28 to 32 °C
13,Clc1ccc2c(c1)N=C(NCCn1ccnc1)c1ccccc1N2,168 to 170 °C
14,COc1ccc2cc(-c3ccc(OCCN4CCCC4)cc3)sc2c1,151 to 154 °C
15,Clc1ccc2nc(CN3CCC(c4ccccc4)CC3)cn2c1,132 to 133 °C
16,COc1ccc(C(O)CNCc2cccc([N+](=O)[O-])c2)cc1OC (configuration not stated),105 to 107 °C
17,CCCCCCCCCCc1ccc(NC(=O)c2cccc(-c3ccccc3)c2O)cc1,74 to 75 °C
18,CCCCCCCCCCC#Cc1c2ccccc2c2ccc3c(C#CCCCCCCCCCC)c4ccccc4c4ccc1c2c34,129 to 130 °C
19,CCOP(=O)(C=Cc1ccc([N+](=O)[O-])cc1)OCC,95 to 98 °C
20,CC(C)CC(NC(=O)C(Cc1ccccc1)NC(=O)C1CCCCC1CS)C(=O)O (configuration not stated),156 to 158 °C
21,Cc1oc(-c2ccccc2)nc1COc1ccc(COc2nn(Cc3ccccc3)cc2C=O)cc1,133 to 134 °C
22,CCCc1c(OCCCCCC(=O)c2ccc3cc(O)c(O)cc3c2)ccc(C(=O)O)c1O,205 to 207 °C
23,CC(=O)N1CCc2cc(CC(C)NCCOc3ccccc3OCC(F)(F)F)cc(C#N)c21 (configuration not stated),57 to 59 °C
24,O=[N+]([O-])c1cc(O)c(O)c([N+](=O)[O-])c1,168 to 170 °C
